{
  "source": "patent US12383699B2",
  "about": "“Catheter attachment made of plastic that contains molecularly dispersed polychlorinated phenoxyphenol (PCPP)” (priority 2017, dated 2025)",
  "test_system": "fibroblasts",
  "assay": "fibroblast cytotoxicity test (MTT)",
  "assay_type": "cell-based",
  "from_the_text": "In FIG. 3, the following meanings apply: Mic: miconazole, Tri: trimetoprim, Rif: rifampicin, Irg: Irgasan, Gen: gentamicin, Fus: fusidic acid, Oct: octenidine, Ben: benzylpenicillin, Chl: chlorohexidine, Cli: clindamycine.",
  "data": [
    {"compound": "Oc1cc(Cl)ccc1Oc1ccc(Cl)cc1Cl", "note": "[Irgasan, 5-chloro-2-(2,4-dichlorophenoxy)phenol]", "values": [
      {"measurement": "maximum concentration up to which fibroblasts are hardly inhibited and the substance is non-toxic", "setting": "FIG. 3, MTT", "value": "≤ 10", "unit": "µg/mL"},
      {"measurement": "adverse affection in fibroblast-cytotoxicity test", "setting": "Irgasan release (cm^2) of 2-4 mg/I, release rates for inhibition zones of about 20 mm", "value": "only a minimum adverse affection"}
    ]}
  ]
}
